Results as given in US20120177797A1, “TASTE ENHANCING AGENT” (J-OIL MILLS, INC., priority 2009, published 2012).

Test: Sensory evaluation, intensity of umami in aqueous MSG solution
Format: in vivo
Settings: 10 ppm added to 0.2% MSG; additive-free = 3.0; 1.0 much weaker to 5.0 much stronger; mean of three individuals, nose clip
Description: (§1) All sensory evaluation of taste was performed by individuals wearing a nose clip. The evaluation was performed by groups of three individuals, and the scores were averaged.
(§2) To a 0.2% aqueous sodium glutamate (MSG) solution (=umami), a 0.8% aqueous salt (NaCl) solution (=saltiness) and a 2% aqueous sucrose solution (=sweetness) were added 10 ppm linear aliphatic aldehydes having 3-12 carbon atoms shown in Table 1, respectively. Sensory evaluation was performed in which intensity of taste sensed when each of the aqueous solutions is introduced into the mouth is defined as “Intensity of umami” for the aqueous MSG solution, “Intensity of saltiness” for the aqueous NaCl solution and “Intensity of sweetness” for the aqueous sucrose solution. The score of aldehyde-free taste intensity was set to 3.0, and taste intensity upon addition of aldehyde was evaluated as follows. The results are shown in Table 1. • 1.0: Much weaker • 2.0: Weaker • 3.0: Similar • 4.0: Stronger • 5.0: Much Stronger
(§3) To a 0.2% aqueous sodium glutamate (MSG) solution (=umami), a 0.8% aqueous salt (NaCl) solution (=saltiness), a 2% aqueous sucrose solution (=sweetness) were added 10 ppm linear aliphatic alcohols having 2-11 carbon atoms, respectively. Sensory evaluation was performed in which intensity of taste sensed when each of the aqueous solutions is introduced into the mouth is defined as “Intensity of umami” for the aqueous MSG solution, “Intensity of saltiness” for the aqueous NaCl solution and “Intensity of sweetness” for the aqueous sucrose solution. The score of alcohol-free taste intensity was set to 3.0, and taste intensity upon addition was evaluated as follows. The results are shown in Table 3. • 1.0: Much weaker • 2.0: Weaker • 3.0: Similar • 4.0: Stronger • 5.0: Much stronger
(§4) To a 0.2% aqueous sodium glutamate (MSG) solution (=umami), a 0.8% aqueous salt (NaCl) solution (=saltiness), a 2% aqueous sucrose solution (=sweetness) were added 1 ppm n-hexanal and 1ppm 1-octene-3-ol each, respectively. Sensory evaluation was performed in which the intensity of taste sensed when each of the aqueous solutions is introduced into the mouth is defined as “Intensity of umami” for the aqueous MSG solution, “Intensity of saltiness” for the aqueous NaCl solution and “Intensity of sweetness” for the aqueous sucrose solution. The score of additive-free taste intensity was set to 3.0, and taste intensity upon addition was evaluated as follows. The results are shown in Table 9. • 1.0: Much weaker • 2.0: Weaker • 3.0: Similar • 4.0: Stronger • 5.0: Much stronger

SMILES	Intensity of umami, Aqueous MSG solution
CCC=O [n-propanal]	3.5
CCCCCCCC=O [n-octanal]	3.8
C=CC(O)CCCCCCC (stereo not shown) [1-decene-3-ol]	3.2
CCCCCO [Example 1-pentanol, 1-pentanol]	3.2
CCCCC=O [n-pentanal]	4.5
CCCCO [Example 1-butanol, 1-butanol]	3.2
C=CC(C)O (stereo not shown) [Example 1-buten-3-ol, 1-buten-3-ol]	3.2
CCO [ethanol, reference compound]	3.0
CCCCCCCCCC=O [n-decanal]	3.5
CCCCCC=CC=CC=O [2,4-decadienal]	3.5
C=CC(O)CCC (stereo not shown) [1-hexene-3-ol]	3.2
CCCC=CC=O [Example 2-hexenal, 2-hexenal]	3.8
CCCCCCCCCCO [Example 1-decanol, 1-decanol]	3.2
CCCCCCO [Example 1-hexanol, 1-hexanol]	3.2
CCCCCCCCCCCO [Example 1-undecanol, 1-undecanol, reference compound]	3.0
CCCCCCCO [Example 1-heptanol, 1-heptanol]	3.2
CCCCCCCCCO [Example 1-nonanol, 1-nonanol]	3.2
CCCCCCCCCCC=O [n-undecanal, reference compound]	3.0
CCCCCCCCO [Example 1-octanol, 1-octanol]	3.2
CCCC=O [n-butanal]	3.5
CCCCCCCCCCCC=O [n-dodecanal, reference compound]	3.0
CCCCCCC=O [n-heptanal]	4.5
C=CCCCC=CCO [2,7-octadienol]	3.2

Test: Sensory evaluation, intensity of saltiness in aqueous NaCl solution
Format: in vivo
Settings: 10 ppm added to 0.8% NaCl; additive-free = 3.0; 1.0 much weaker to 5.0 much stronger
Description: as §1, §2, §3, §4

SMILES	Intensity of saltiness, Aqueous NaCl solution
CCC=O [n-propanal]	3.5
CCCCCCCC=O [n-octanal]	3.8
C=CC(O)CCCCCCC (stereo not shown) [1-decene-3-ol]	3.2
CCCCCO [Example 1-pentanol, 1-pentanol]	3.2
CCCCC=O [n-pentanal]	4.5
CCCCO [Example 1-butanol, 1-butanol]	3.2
C=CC(C)O (stereo not shown) [Example 1-buten-3-ol, 1-buten-3-ol]	3.2
CCO [ethanol, reference compound]	3.0
CCCCCCCCCC=O [n-decanal]	3.5
CCCCCC=CC=CC=O [2,4-decadienal]	3.5
C=CC(O)CCC (stereo not shown) [1-hexene-3-ol]	3.2
CCCC=CC=O [Example 2-hexenal, 2-hexenal]	3.8
CCCCCCCCCCO [Example 1-decanol, 1-decanol]	3.2
CCCCCCO [Example 1-hexanol, 1-hexanol]	3.2
CCCCCCCCCCCO [Example 1-undecanol, 1-undecanol, reference compound]	3.0
CCCCCCCO [Example 1-heptanol, 1-heptanol]	3.2
CCCCCCCCCO [Example 1-nonanol, 1-nonanol]	3.2
CCCCCCCCCCC=O [n-undecanal, reference compound]	3.0
CCCCCCCCO [Example 1-octanol, 1-octanol]	3.2
CCCC=O [n-butanal]	3.5
CCCCCCCCCCCC=O [n-dodecanal, reference compound]	3.0
CCCCCCC=O [n-heptanal]	4.5
C=CCCCC=CCO [2,7-octadienol]	3.2

Test: Sensory evaluation, intensity of sweetness in aqueous sucrose solution
Format: in vivo
Settings: 10 ppm added to 2% sucrose; additive-free = 3.0; 1.0 much weaker to 5.0 much stronger
Description: as §1, §2, §3, §4

SMILES	Intensity of sweetness, Aqueous sucrose solution
CCC=O [n-propanal]	3.5
CCCCCCCC=O [n-octanal]	3.5
C=CC(O)CCCCCCC (stereo not shown) [1-decene-3-ol]	3.5
CCCCCO [Example 1-pentanol, 1-pentanol]	3.2
CCCCC=O [n-pentanal]	4.0
CCCCO [Example 1-butanol, 1-butanol]	3.2
C=CC(C)O (stereo not shown) [Example 1-buten-3-ol, 1-buten-3-ol]	3.5
CCO [ethanol, reference compound]	3.0
CCCCCCCCCC=O [n-decanal]	3.5
CCCCCC=CC=CC=O [2,4-decadienal]	3.5
C=CC(O)CCC (stereo not shown) [1-hexene-3-ol]	3.5
CCCC=CC=O [Example 2-hexenal, 2-hexenal]	3.8
CCCCCCCCCCO [Example 1-decanol, 1-decanol]	3.2
CCCCCCO [Example 1-hexanol, 1-hexanol]	3.2
CCCCCCCCCCCO [Example 1-undecanol, 1-undecanol, reference compound]	3.0
CCCCCCCO [Example 1-heptanol, 1-heptanol]	3.2
CCCCCCCCCO [Example 1-nonanol, 1-nonanol]	3.2
CCCCCCCCCCC=O [n-undecanal, reference compound]	3.0
CCCCCCCCO [Example 1-octanol, 1-octanol]	3.2
CCCC=O [n-butanal]	3.5
CCCCCCCCCCCC=O [n-dodecanal, reference compound]	3.0
CCCCCCC=O [n-heptanal]	4.0
C=CCCCC=CCO [2,7-octadienol]	3.5

Test: Sensory evaluation whether salt usage can be reduced
Format: in vivo
Settings: 0.6% aqueous NaCl solution, nothing added, for comparison; 0.5% NaCl solution = 3.0
Description: as §1
Evaluation was conducted to find whether salt usage can be reduced by the taste enhancing effects. To a 0.5% aqueous NaCl solution was added 10 ppm n-hexanal or 10 ppm 1-octen-3-ol. Taste intensity was determined in the sensory evaluation where the taste intensity of the 0.5% NaCl solution was set to 3.0. For comparison, sensory evaluation was also performed for a 0.8% and 0.6% concentration of aqueous NaCl solution. The sensory evaluation was evaluated as follows. The results are shown in Table 5. • 1.0: Much weaker • 2.0: Weaker • 3.0: Similar • 4.0: Stronger • 5.0: Much stronger

SMILES	Scores in sensory evaluation (taste intensity, saltiness)
[Cl-].[Na+] [NaCl, sodium chloride, reference compound]	3.5

Same assay, conditions: 0.8% aqueous NaCl solution, nothing added, for comparison; 0.5% NaCl solution = 3.0

SMILES	Scores in sensory evaluation (taste intensity, saltiness)
[Cl-].[Na+] [NaCl, sodium chloride, reference compound]	4.0

Test: Sensory evaluation whether sucrose usage can be reduced
Format: in vivo
Settings: 1.8% aqueous sucrose solution, nothing added, for comparison; 1.5% sucrose solution = 3.0
Description: as §1
Evaluation was conducted to find whether sucrose usage can be reduced by the taste enhancing effects. To a 1.5% aqueous sucrose solution was added 10 ppm n-hexanal or 10 ppm 1-octen-3-ol. Taste intensity was determined in the sensory evaluation where the taste intensity of the 1.5% sucrose solution was set to 3.0. For comparison, sensory evaluation was also performed for a 2.0% and 1.8% concentration of aqueous sucrose solution. The sensory evaluation was evaluated as follows. The results are shown in Table 6. • 1.0: Much weaker • 2.0: Weaker • 3.0: Similar • 4.0: Stronger • 5.0: Much stronger

SMILES	Scores in sensory evaluation (taste intensity, sweetness)
OC[C@H]1O[C@@](CO)(O[C@H]2O[C@H](CO)[C@@H](O)[C@H](O)[C@H]2O)[C@@H](O)[C@@H]1O [sucrose, reference compound]	3.5

Same assay, conditions: 2.0% aqueous sucrose solution, nothing added, for comparison; 1.5% sucrose solution = 3.0

SMILES	Scores in sensory evaluation (taste intensity, sweetness)
OC[C@H]1O[C@@](CO)(O[C@H]2O[C@H](CO)[C@@H](O)[C@H](O)[C@H]2O)[C@@H](O)[C@@H]1O [sucrose, reference compound]	4.0

Test: Sensory evaluation, intensity of umami in diluted soy sauce
Format: in vivo
Settings: 10 ppm in soy sauce diluted to 2% in water; aldehyde-free = 3.0; scale 1.0-5.0
Description: as §1
(§5) Sensory evaluation was performed for “Intensity of Umani ” and “ Intensity of Saltiness “. The score of aldehyde-free taste intensity was set to 3.0, and taste intensity upon addition was evaluated as follows. The results are shown in Table 7. • 1.0: Much weaker • 2.0: Weaker • 3.0: Similar • 4.0: Stronger • 5.0: Much stronger

SMILES	Intensity of umami
CCC=O [n-propanal]	3.5
CCCCCCCC=O [n-octanal]	3.5
CCCCC=O [n-pentanal]	4.2
CCCCCCCCCC=O [n-decanal]	3.5
CCCC=O [n-butanal]	3.5
CCCCCCC=O [n-heptanal]	4.0

Test: Sensory evaluation, intensity of saltiness in diluted soy sauce
Format: in vivo
Settings: 10 ppm in soy sauce diluted to 2% in water; aldehyde-free = 3.0; scale 1.0-5.0
Description: as §1, §5

SMILES	Intensity of saltiness
CCC=O [n-propanal]	3.5
CCCCCCCC=O [n-octanal]	3.5
CCCCC=O [n-pentanal]	4.2
CCCCCCCCCC=O [n-decanal]	3.5
CCCC=O [n-butanal]	3.5
CCCCCCC=O [n-heptanal]	4.0

Test: Sensory evaluation, intensity of sweetness in whipped cream
Format: in vivo
Settings: 100 ppm in whipped cream; aldehyde-free = 3.0; scale 1.0-5.0
Description: as §1
Sensory evaluation was performed for “Intensity of sweetness”. The score of aldehyde-free taste intensity was set to 3.0, and taste intensity upon addition was evaluated as follows. The results are shown in Table 8. • 1.0: Much weaker • 2.0: Weaker • 3.0: Similar • 4.0: Stronger • 5.0: Much stronger

SMILES	Intensity of sweetness
CCC=O [n-propanal]	3.5
CCCCCCCC=O [n-octanal]	3.5
CCCCC=O [n-pentanal]	4.2
CCCCCCCCCC=O [n-decanal]	3.5
CCCC=O [n-butanal]	3.5
CCCCCCC=O [n-heptanal]	4.0

Test: Sensory evaluation, intensity of umami in aqueous MSG solution
Format: in vivo
Settings: 10 ppm added to 0.2% MSG; additive-free = 3.0; 1.0 much weaker to 5.0 much stronger; mean of three individuals, nose clip
Remark: another data set of the same source

SMILES	Intensity of umami, Aqueous MSG solution
CCCO [propanol, reference compound]	3.0

Test: Sensory evaluation, intensity of saltiness in aqueous NaCl solution
Format: in vivo
Settings: 10 ppm added to 0.8% NaCl; additive-free = 3.0; 1.0 much weaker to 5.0 much stronger
Remark: another data set of the same source

SMILES	Intensity of saltiness, Aqueous NaCl solution
CCCO [propanol, reference compound]	3.0

Test: Sensory evaluation, intensity of sweetness in aqueous sucrose solution
Format: in vivo
Settings: 10 ppm added to 2% sucrose; additive-free = 3.0; 1.0 much weaker to 5.0 much stronger
Remark: another data set of the same source

SMILES	Intensity of sweetness, Aqueous sucrose solution
CCCO [propanol, reference compound]	3.0
